Measurements taken from patent US4438091A, “Bromhexine delayed-release pharmaceutical form” (Dr. Karl Thomae GmbH, priority 1981, dated 1984).
≈ marks a conversion by molar mass, not a printed value. Entries after “also recorded” stand apart in the source; their conditions may differ. Where a name gives a salt, the structure may show the parent alone.

Experiments:
[1] = Absorption of bromhexine from the intestinal tract (preliminary tests in vivo); settings: for absorption from the intestinal tract: micronized, introduced by preparation resistant to gastric juices
Excerpt: In view of the obvious advantages of producing a delayed-release form of bromhexine, there has been no shortage of attempts to produce such a preparation. […] In cases such as this, success is often achieved if the active substance is mixed with an emulsifier which then releases the active substance in solubilized form in the intestinal juices.

[2] = cited from earlier work
[3] = Solubility of bromhexine base in phosphate buffer / aqueous medium; format: physicochemical; settings: for solubility: aqueous buffer
Excerpt: If, for example, bromhexine hydrochloride is made into the form of a matrix-type delayed-release tablet (Example 11), bromhexine can only be released, in dissolved form, from this preparation as long as the tablet is in the acidic medium of the stomach. […] The intestinal juices momentarily buffer the acid salts to form a substantially insoluble bromhexine base.

Row | Solubility in aqueous medium ([3]; acidic range) | solubility ([3]; pH 4.5, phosphate buffer) | solubility ([3]; pH 5.0, phosphate buffer) | solubility ([3]; pH 6.0, phosphate buffer) | solubility ([3]; pH 6.5, phosphate buffer) | solubility ([3]; pH 7.0, phosphate buffer) | Compound | absorption from the intestinal tract [1] | absorption rate along the intestine ([1]; dissolved bromhexine in various intestinal sections, duodenum to colon) | frequency of coughing, total number of coughing spasms and intensity of the cough ([2]; in vivo) | therapeutic effect in diseases of the respiratory tract ([2]; pathological change in secretion, single or double blind testing) | breathing ([2]; patients' finding) | Solubility in water ([3]; above a pH of 4 / from pH 4.0)
1 |  |  |  |  |  |  | CN(Cc1cc(Br)cc(Br)c1N)C1CCCCC1 [micronized bromhexine] | not absorbed |  |  |  |  | 
2 | soluble only in the acidic range | 650 µg/mL (≈ 1730 µM) | 150 µg/mL (≈ 399 µM) | 30 µg/mL (≈ 79.8 µM) | 10 µg/mL (≈ 26.6 µM) | 3 µg/mL (≈ 7.98 µM) | CN(Cc1cc(Br)cc(Br)c1N)C1CCCCC1 [bromhexine, N-cyclohexyl-N-methyl-(2-amino-3,5-dibromobenzyl)-amine] |  | decreases sharply from the duodenum to the colon; also recorded: absorbed particularly quickly in the uppermost section of the intestines; also recorded: decreases significantly in the lower intestinal regions | favorably affected | often been confirmed | breathing is eased | virtually insoluble in water; also recorded: virtually insoluble from pH 4.0
3 |  |  |  |  |  |  | CN(Cc1cc(Br)cc(Br)c1N)C1CCCCC1 [micronized bromhexine hydrochloride] | did not result in any appreciable absorption |  |  |  |  | 
